Like-named read-outs stand apart in the source and are kept apart here. Starred links: 1 amine or outer side, 2 acyl side, 3 side chain; linkers in the order of their positions; H or OH if unused. Positions of bridges follow the written chain, without caps; N, C: chain ends. Non-standard residues stand in square brackets, D forms with d. Residues, ends and D or L forms follow the SMILES beside them. *: point of attachment. Orn(4R-OH,5R-OH) = O=C([C@H](C[C@@H](O)[C@@H](O)N[*:3])N[*:1])[*:2]; hTyr(3S-OH,4S-OH) = N[C@H](C(=O)O)[C@H](O)[C@@H](O)c1ccc(O)cc1; Benzoyl(4-dodecyloxy) = CCCCCCCCCCCCOc1ccc(C(=O)*)cc1; Benzoyl(4-OC10H21) = CCCCCCCCCCOc1ccc(C(=O)*)cc1; Pro(3S-OH,4S-Me) = C[C@H]1CN[C@H](C(=O)O)[C@H]1O; Benzoyl(4-octyl) = CCCCCCCCc1ccc(C(=O)*)cc1; X20 = CCCCCCCCCCCCCCOc1ccc(C(=O)*)cc1; X18 = CCCCCCCCCCCCOc1ccc(CC(=O)*)cc1; X10 = CCCCCCCCCCCCOc1cccc(C(=O)*)c1; X16 = CCCCCCCCOc1ccc(C=CC(=O)*)cc1; X11 = CCCCCCCCOc1ccc(OCC(=O)*)cc1; Hyp = O=C(O)[C@@H]1C[C@@H](O)CN1; X15 = CCCCCCCCOc1cccc(CC(=O)*)c1; X19 = CCCCCCOc1ccc(C=CC(=O)*)cc1; X6 = CCCCCCCCCCSc1ccc(C(=O)*)cc1; X9 = CCCCCCCCCCOc1cccc(C(=O)*)c1; X12 = CCCCCCOc1ccc(CCC(=O)*)cc1; X13 = CCCCCCCCOc1cccc(C(=O)*)c1; X7 = CCCCCCCCSc1ccc(C(=O)*)cc1; X14 = CCCCCCOc1ccc(C(=O)*)cc1; X17 = CCCCOc1ccc(CCC(=O)*)cc1
Columns and labels:
Candida albicans A-26 [1] = assay: Therapeutic activity against Candida albicans A-26 infection in X-irradiated mice, lowest active dose; type: in vivo; conditions: A26, light or radiation study, sc
Experimental: (§1) The results of in vivo tests to evaluate the effectiveness of the compounds of Examples 3 and 4 against an infection caused by Candida albicans A-26 in mice are given in Table 13, where activity is measured by the ED50 value (the dose in mg/kg. required to cure 50% of the test animals). In a separate test, the results of which are also summarized in Table 13, activity is indicated by the lowest dose at which a significant anti-fungal effect is observed. In this test, groups of male albino mice (specific pathogen free), weighing 18 to 20 grams, are infected intravenously with Candida albicans A-26. The animals are X-irradiated 24 hours prior to infection at about 50 roentgens per minute for 8 minutes (400 total dose) to reduce immune responses to the infecting organism. At 0, 4, and 24 hours post infection each group of mice is given graded doses subcutaneously of the test compound as a suspension in 33% polyethylene glycol (PEG)-water. The day of death for each animal is recorded.
(§2) *Dosage Schedules: A. = 40, 20, 15 and 10 mg/kg; Dosages given 0, 4, and
(§3) 24 hours post injection as suspension of test compound in 30% PEGH2
(§4) O. Number of mice receiving test compounds at each dosage level: 6 mice
(§5) per group. Number of mice in control (untreated) group: 10 mice per group

Candida albicans A-26 [2] = assay: Therapeutic activity against Candida albicans A-26 infection in mice, ED50; type: in vivo; conditions: Candida albicans, A26, sc, doses 0, 4 and 24 hours post infection, increase in survival time vs control, Reed-Muench, read-out: ED50
Experimental: as §1, §2, §3, §4, §5
**As measured by increase in survival time of treated animals versus
control, calculated by method of Reed v Mueuch, American J. Hygiene, 27,

in vivo = conditions: mouse, po, 416 mg/kg
[3] = X-irradiated mice, subcutaneous at 0, 4 and 24 hours post infection, survival, read-out: Lowest Active Dose
[4] = read-out: Lowest Active Dose, X-irradiated mice, subcutaneous at 0, 4 and 24 hours post infection, survival

SMILES | minimal effective dose (Candida albicans A-26 [1]; [3]) [mg/kg] | ED50 (Candida albicans A-26 [2]) [mg/kg] | minimal effective dose (Candida albicans A-26 [1]; [4]) [mg/kg] | Cmax (in vivo) [ng/mL]
CCCCCCCCOc1cccc(C(=O)N[C@H]2C[C@@H](O)[C@@H](O)NC(=O)[C@@H]3[C@@H](O)[C@@H](C)CN3C(=O)[C@H]([C@@H](C)O)NC(=O)[C@H]([C@H](O)[C@@H](O)c3ccc(O)cc3)NC(=O)[C@@H]3C[C@@H](O)CN3C(=O)[C@H]([C@@H](C)O)NC2=O)c1 [drawing 163] (X13-[Orn(4R-OH,5R-OH)]T[Hyp][hTyr(3S-OH,4S-OH)]T[Pro(3S-OH,4S-Me)]; lactam 1-C) | 40 | > 50 | – | –
CCCCCCCCCCOc1cccc(C(=O)N[C@H]2C[C@@H](O)[C@@H](O)NC(=O)[C@@H]3[C@@H](O)[C@@H](C)CN3C(=O)[C@H]([C@@H](C)O)NC(=O)[C@H]([C@H](O)[C@@H](O)c3ccc(O)cc3)NC(=O)[C@@H]3C[C@@H](O)CN3C(=O)[C@H]([C@@H](C)O)NC2=O)c1 [drawing 164] (X9-[Orn(4R-OH,5R-OH)]T[Hyp][hTyr(3S-OH,4S-OH)]T[Pro(3S-OH,4S-Me)]; lactam 1-C) | > 40 | > 50 | – | –
CCCCCCCCCCCCOc1cccc(C(=O)N[C@H]2C[C@@H](O)[C@@H](O)NC(=O)[C@@H]3[C@@H](O)[C@@H](C)CN3C(=O)[C@H]([C@@H](C)O)NC(=O)[C@H]([C@H](O)[C@@H](O)c3ccc(O)cc3)NC(=O)[C@@H]3C[C@@H](O)CN3C(=O)[C@H]([C@@H](C)O)NC2=O)c1 [drawing 165] (X10-[Orn(4R-OH,5R-OH)]T[Hyp][hTyr(3S-OH,4S-OH)]T[Pro(3S-OH,4S-Me)]; lactam 1-C) | > 40 | > 50 | – | –
CCCCCCOc1ccc(C(=O)N[C@H]2C[C@@H](O)[C@@H](O)NC(=O)[C@@H]3[C@@H](O)[C@@H](C)CN3C(=O)[C@H]([C@@H](C)O)NC(=O)[C@H]([C@H](O)[C@@H](O)c3ccc(O)cc3)NC(=O)[C@@H]3C[C@@H](O)CN3C(=O)[C@H]([C@@H](C)O)NC2=O)cc1 [drawing 167] (X14-[Orn(4R-OH,5R-OH)]T[Hyp][hTyr(3S-OH,4S-OH)]T[Pro(3S-OH,4S-Me)]; lactam 1-C) | 20 | 28 | – | –
CCCCCCCCc1ccc(C(=O)N[C@H]2C[C@@H](O)[C@@H](O)NC(=O)[C@@H]3[C@@H](O)[C@@H](C)CN3C(=O)[C@H]([C@@H](C)O)NC(=O)[C@H]([C@H](O)[C@@H](O)c3ccc(O)cc3)NC(=O)[C@@H]3C[C@@H](O)CN3C(=O)[C@H]([C@@H](C)O)NC2=O)cc1 [drawing 169] ({Benzoyl(4-octyl)}-[Orn(4R-OH,5R-OH)]T[Hyp][hTyr(3S-OH,4S-OH)]T[Pro(3S-OH,4S-Me)]; lactam 1-C) | 40 | 30 | – | –
CCCCOc1ccc(CCC(=O)N[C@H]2C[C@@H](O)[C@@H](O)NC(=O)[C@@H]3[C@@H](O)[C@@H](C)CN3C(=O)[C@H]([C@@H](C)O)NC(=O)[C@H]([C@H](O)[C@@H](O)c3ccc(O)cc3)NC(=O)[C@@H]3C[C@@H](O)CN3C(=O)[C@H]([C@@H](C)O)NC2=O)cc1 [drawing 170] (X17-[Orn(4R-OH,5R-OH)]T[Hyp][hTyr(3S-OH,4S-OH)]T[Pro(3S-OH,4S-Me)]; lactam 1-C) | 40 | > 40 | – | –
CCCCCCOc1ccc(CCC(=O)N[C@H]2C[C@@H](O)[C@@H](O)NC(=O)[C@@H]3[C@@H](O)[C@@H](C)CN3C(=O)[C@H]([C@@H](C)O)NC(=O)[C@H]([C@H](O)[C@@H](O)c3ccc(O)cc3)NC(=O)[C@@H]3C[C@@H](O)CN3C(=O)[C@H]([C@@H](C)O)NC2=O)cc1 [drawing 171] (X12-[Orn(4R-OH,5R-OH)]T[Hyp][hTyr(3S-OH,4S-OH)]T[Pro(3S-OH,4S-Me)]; lactam 1-C) | – | 9.2 | 5 | –
CCCCCCOc1ccc(C=CC(=O)N[C@H]2C[C@@H](O)[C@@H](O)NC(=O)[C@@H]3[C@@H](O)[C@@H](C)CN3C(=O)[C@H]([C@@H](C)O)NC(=O)[C@H]([C@H](O)[C@@H](O)c3ccc(O)cc3)NC(=O)[C@@H]3C[C@@H](O)CN3C(=O)[C@H]([C@@H](C)O)NC2=O)cc1 [drawing 175] (X19-[Orn(4R-OH,5R-OH)]T[Hyp][hTyr(3S-OH,4S-OH)]T[Pro(3S-OH,4S-Me)]; lactam 1-C) | – | 21.8 | 5 | –
CCCCCCCCOc1ccc(C=CC(=O)N[C@H]2C[C@@H](O)[C@@H](O)NC(=O)[C@@H]3[C@@H](O)[C@@H](C)CN3C(=O)[C@H]([C@@H](C)O)NC(=O)[C@H]([C@H](O)[C@@H](O)c3ccc(O)cc3)NC(=O)[C@@H]3C[C@@H](O)CN3C(=O)[C@H]([C@@H](C)O)NC2=O)cc1 [drawing 176] (X16-[Orn(4R-OH,5R-OH)]T[Hyp][hTyr(3S-OH,4S-OH)]T[Pro(3S-OH,4S-Me)]; lactam 1-C) | – | 3.75 | 5 | –
CCCCCCCCOc1cccc(CC(=O)N[C@H]2C[C@@H](O)[C@@H](O)NC(=O)[C@@H]3[C@@H](O)[C@@H](C)CN3C(=O)[C@H]([C@@H](C)O)NC(=O)[C@H]([C@H](O)[C@@H](O)c3ccc(O)cc3)NC(=O)[C@@H]3C[C@@H](O)CN3C(=O)[C@H]([C@@H](C)O)NC2=O)c1 [drawing 177] (X15-[Orn(4R-OH,5R-OH)]T[Hyp][hTyr(3S-OH,4S-OH)]T[Pro(3S-OH,4S-Me)]; lactam 1-C) | – | > 40 | 10 | –
CCCCCCCCCCCCOc1ccc(CC(=O)N[C@H]2C[C@@H](O)[C@@H](O)NC(=O)[C@@H]3[C@@H](O)[C@@H](C)CN3C(=O)[C@H]([C@@H](C)O)NC(=O)[C@H]([C@H](O)[C@@H](O)c3ccc(O)cc3)NC(=O)[C@@H]3C[C@@H](O)CN3C(=O)[C@H]([C@@H](C)O)NC2=O)cc1 [drawing 178] (X18-[Orn(4R-OH,5R-OH)]T[Hyp][hTyr(3S-OH,4S-OH)]T[Pro(3S-OH,4S-Me)]; lactam 1-C) | – | 8.4 | 10 | –
CCCCCCCCOc1ccc(OCC(=O)N[C@H]2C[C@@H](O)[C@@H](O)NC(=O)[C@@H]3[C@@H](O)[C@@H](C)CN3C(=O)[C@H]([C@@H](C)O)NC(=O)[C@H]([C@H](O)[C@@H](O)c3ccc(O)cc3)NC(=O)[C@@H]3C[C@@H](O)CN3C(=O)[C@H]([C@@H](C)O)NC2=O)cc1 [drawing 179] (X11-[Orn(4R-OH,5R-OH)]T[Hyp][hTyr(3S-OH,4S-OH)]T[Pro(3S-OH,4S-Me)]; lactam 1-C) | – | 16.8 | 10 | –
CCCCCCCCCCOc1ccc(C(=O)N[C@H]2C[C@@H](O)[C@@H](O)NC(=O)[C@@H]3[C@@H](O)[C@@H](C)CN3C(=O)[C@H]([C@@H](C)O)NC(=O)[C@H]([C@H](O)[C@@H](O)c3ccc(O)cc3)NC(=O)[C@@H]3C[C@@H](O)CN3C(=O)[C@H]([C@@H](C)O)NC2=O)cc1 [drawing 182] ({Benzoyl(4-OC10H21)}-[Orn(4R-OH,5R-OH)]T[Hyp][hTyr(3S-OH,4S-OH)]T[Pro(3S-OH,4S-Me)]; lactam 1-C) | – | – | – | < 100
CCCCCCCCCCCCOc1ccc(C(=O)N[C@H]2C[C@@H](O)[C@@H](O)NC(=O)[C@@H]3[C@@H](O)[C@@H](C)CN3C(=O)[C@H]([C@@H](C)O)NC(=O)[C@H]([C@H](O)[C@@H](O)c3ccc(O)cc3)NC(=O)[C@@H]3C[C@@H](O)CN3C(=O)[C@H]([C@@H](C)O)NC2=O)cc1 [drawing 183] ({Benzoyl(4-dodecyloxy)}-[Orn(4R-OH,5R-OH)]T[Hyp][hTyr(3S-OH,4S-OH)]T[Pro(3S-OH,4S-Me)]; lactam 1-C) | – | – | – | 5000
CCCCCCCCCCCCCCOc1ccc(C(=O)N[C@H]2C[C@@H](O)[C@@H](O)NC(=O)[C@@H]3[C@@H](O)[C@@H](C)CN3C(=O)[C@H]([C@@H](C)O)NC(=O)[C@H]([C@H](O)[C@@H](O)c3ccc(O)cc3)NC(=O)[C@@H]3C[C@@H](O)CN3C(=O)[C@H]([C@@H](C)O)NC2=O)cc1 [drawing 184] (X20-[Orn(4R-OH,5R-OH)]T[Hyp][hTyr(3S-OH,4S-OH)]T[Pro(3S-OH,4S-Me)]; lactam 1-C) | – | – | – | 5000
CCCCCCCCSc1ccc(C(=O)N[C@H]2C[C@@H](O)[C@@H](O)NC(=O)[C@@H]3[C@@H](O)[C@@H](C)CN3C(=O)[C@H]([C@@H](C)O)NC(=O)[C@H]([C@H](O)[C@@H](O)c3ccc(O)cc3)NC(=O)[C@@H]3C[C@@H](O)CN3C(=O)[C@H]([C@@H](C)O)NC2=O)cc1 [drawing 185] (X7-[Orn(4R-OH,5R-OH)]T[Hyp][hTyr(3S-OH,4S-OH)]T[Pro(3S-OH,4S-Me)]; lactam 1-C) | – | – | – | < 100
CCCCCCCCCCSc1ccc(C(=O)N[C@H]2C[C@@H](O)[C@@H](O)NC(=O)[C@@H]3[C@@H](O)[C@@H](C)CN3C(=O)[C@H]([C@@H](C)O)NC(=O)[C@H]([C@H](O)[C@@H](O)c3ccc(O)cc3)NC(=O)[C@@H]3C[C@@H](O)CN3C(=O)[C@H]([C@@H](C)O)NC2=O)cc1 [drawing 186] (X6-[Orn(4R-OH,5R-OH)]T[Hyp][hTyr(3S-OH,4S-OH)]T[Pro(3S-OH,4S-Me)]; lactam 1-C) | – | – | – | 5000
